# Values quoted from earlier work, collected in US20120121653A1, “Novel mometasone compositions and methods of making and using the same” (Elan Pharma International Limited, priority 2005, published 2012).
# Where two headings read alike, the source gives them in different places.
# How the values were obtained:
# [1] = not given; remark: listed apart in the source
structure (smiles),measurement,setting,value
"C[C@@H]1C[C@H]2[C@@H]3CCC4=CC(=O)C=C[C@]4(C)[C@@]3(Cl)[C@@H](O)C[C@]2(C)[C@@]1(OC(=O)c1ccco1)C(=O)CCl [Mometasone furoate monohydrate, 9,21-Dichloro-11, β,17-di-hydroxy-16^α-methylpregna-1,4-diene-3 ,20-done 17-(2 furoate)]",solubility,in acetone,soluble
same,solubility,in chloroform,soluble
same,solubility,in ethanol,slightly soluble
same,solubility,in isopropanol,slightly soluble
same,solubility,in methanol,slightly soluble
same,solubility,in tetrahydrofuran,freely soluble
same,solubility,in water,practically insoluble
same,partition coefficient between octanol and water,[1],greater than 5000
